Assay results as given in patent publication EP0103030A1, “Polycyclic fused pyrazole compounds, useful as anti-inflammatory agents, and preparation thereof” (STERLING DRUG INC., priority 1982, dated 1984).

What was measured:
Assay type in all cases: in vivo
[1] = system: Male rats; assay: Anti-inflammatory activity (a-tocopherol pouch test)
Procedure: A rapid subcutaneous injection of 25 mL of air was made between the scapulae of each rat. […] The test compound was administered in daily oral doses for 7 days beginning on the day of pouch formation. The compound to be tested was suspended in 1% gum tragacanth. Twenty-four hours after the last medication, the pouches were dissected free, and the fluid volume was measured. The inhibition of liquid exudate is a measure of the anti=inflammatory activity.

[2] = system: Mature male rats were bilaterally adrenalectomized; assay: Glycogenic activity (liver glycogen deposition test)
Excerpt: Glycogenic Activity: Mature male rats were bilaterally adrenalectomized 5 days prior to the test. These rats were medicated orally with the test compound for 5 days. Seven hours after the last medication, the rats (which have been fasted overnight) were anesthetized with sodium pentobarbital and a portion of one lobe of the liver was removed and frozen on dry ice for subsequent glycogen determination.

[3] = system: Mature female rats; assay: Endocrine profile (thymus, adrenal and body weight after 2 weeks oral medication); settings: compared with the controls
Procedure: The test procedures used to determine the biological activities of the compounds of the invention were carried out as follows: • Endocrine Profile: Mature female rats with an average body weight of 202 g and a body weight range of 15 g or less were medicated orally with test compound for 2 weeks. The test compound was prepared as a solution or suspension in 1% gum tragacanth or 0.75% methyl cellulose. On the day following the last medication, the rats were killed and the thymus and adrenal of each rat were removed, cleaned, and weighed. Body weights and food consumptions were also recorded.

Structure (SMILES) | ED50 ([1]; Rattus norvegicus, 168 h, daily oral doses for 7 days, male rats, inhibition of liquid exudate) [mg/kg] | anti-inflammatory activity by the a-tocopherol pouch test ([1]; rats, general statement) | liver glycogen deposition value ([2]; dose level of 9 mg/kg/day x 5, oral, adrenalectomized male rats, vehicle 2.2 + 0.04 mg/g) | glucocorticoid activity by the liver glycogen deposition test ([2]; oral, rats, general statement) | reduction in adrenal weight ([3]; dose level of 1 mg/kg) [%] | reduction in body weight gain ([3]; dose level of 1 mg/kg) [%] | reduction in thymus weight ([3]; dose level of 1 mg/kg) [%] | activity in the a-tocopherol pouch test ([1]; dose level of 100 mg/kg, daily oral doses for 7 days, male rats) | reduction in adrenal weight ([3]; dose level of 5 mg/kg) [%] | reduction in body weight gain ([3]; dose level of 5 mg/kg) [%] | reduction in thymus weight ([3]; dose level of 5 mg/kg) [%]
CC12Cc3cnn(-c4ccc(F)cc4)c3C=C1CCC1OC3(CC=C12)C(=O)c1ccccc1C3=O (centres unmarked) [Compound I (R = F), 8'-(4-Fluorophenyl)-2',3',5',6',ll',lla'-hexahydro-lla'-methylspiro-2H-indene[2,3']-3H-pyrazolo[4",5":7',6']-naphtho-[2,1-b] pyran-1,3-dione] | 10 | anti-inflammatory activity | 21.8 + 4.4 mg/g of tissue | oral glucocorticoid activity | 56 | 129 | 61 |  |  |  | 
CC12Cc3cnn(-c4ccccc4)c3C=C1CCC1OC3(CC=C12)C(=O)c1ccccc1C3=O (centres unmarked) [Compound I (R = H), 2',3',5',6',11',11a'-Hexahydro-11a'-methyl-8'-phenylspiro 2H-indene[2,3']-3H-pyrazolo[4",5":7',6']naphtho[2,1-b] pyran-1,3-dione] |  |  |  |  |  |  |  | inactive | 38 | 62 | 51
